Experimental data: publication PMC5830979, “Preclinical In Vitro and In Vivo Evaluation of [^18F]FE@SUPPY for Cancer PET Imaging: Limitations of a Xenograft Model for Colorectal Cancer” (Contrast Media & Molecular Imaging, 2018)
Like-named read-outs stand apart in the source and are kept apart here. One block for each compound: values may come before it.

Experiments:
hA1AR = target: T1, hA1AR (Homo sapiens, UniProt P30542); assay: Competitive binding assay, hA1AR membranes, [3H]DPCPX; details: for Ki: read-out: Ki hA1AR, [3H]DPCPX […], DMSO up to 10%, n = 3–5 in triplicate
T1 sequence (P30542 1-326): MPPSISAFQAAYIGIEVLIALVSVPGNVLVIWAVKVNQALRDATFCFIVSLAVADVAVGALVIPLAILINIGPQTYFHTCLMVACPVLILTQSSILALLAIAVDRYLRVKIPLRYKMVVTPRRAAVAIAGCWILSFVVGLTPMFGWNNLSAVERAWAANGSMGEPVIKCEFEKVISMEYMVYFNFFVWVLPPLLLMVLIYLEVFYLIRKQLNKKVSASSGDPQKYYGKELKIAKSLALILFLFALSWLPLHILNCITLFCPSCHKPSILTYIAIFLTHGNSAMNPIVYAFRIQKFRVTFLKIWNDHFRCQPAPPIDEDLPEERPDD
Description: (§2) The assay was performed according to the manufacturer's instructions in a final volume of 500 μL. Increasing concentrations of test compounds were added, whereby the concentration of dimethyl sulfoxide (DMSO) in final assay volume remained ≤10% (hA1AR and hA2AAR assay) and ≤1% in the hA3AR assay. Nonspecific binding was determined using 1 μM DPCPX (hA1R assay), 1 μM SCH-442,416 (hA2AR assay), or 10 μM I-AB-MECA (hA3AR assay). Filtration through GF/B filters (Whatman®, presoaked in 0.1% PEI or 0.5% BSA) was performed using a cell harvester (Brandel®), and receptor-bound radioactivity was determined via gamma counting (2480 Wizard^2, PerkinElmer) or liquid scintillation counting (Hidex 300 SL). IC50 fitted binding curves were generated using the GraphPad Software 5.0, and Ki values were calculated using the Cheng-Prusoff equation.

hA3AR = target: T2, hA3AR (Homo sapiens, UniProt P0DMS8); assay: Competitive binding assay, hA3AR membranes, [125I]AB-MECA; details: read-out: Ki hA3AR, [125I]AB-MECA 0.4 nM, DMSO ≤1%
T2 sequence (P0DMS8 1-318): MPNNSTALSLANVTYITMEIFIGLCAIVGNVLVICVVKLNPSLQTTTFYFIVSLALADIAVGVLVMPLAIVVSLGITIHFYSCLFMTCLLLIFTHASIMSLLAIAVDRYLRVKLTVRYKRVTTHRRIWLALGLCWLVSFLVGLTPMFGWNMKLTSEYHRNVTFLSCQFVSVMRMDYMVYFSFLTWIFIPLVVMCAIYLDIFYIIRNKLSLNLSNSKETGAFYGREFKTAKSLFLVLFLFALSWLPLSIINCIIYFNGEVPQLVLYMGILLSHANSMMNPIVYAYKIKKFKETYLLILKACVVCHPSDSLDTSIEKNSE
Description: as §2

hA2AAR = hA2AAR (Homo sapiens, UniProt P29274); assay: Competitive binding assay, hA2AAR membranes, [3H]CGS21680; details: read-out: Ki hA2AAR; [3H]CGS21680 50 nM; DMSO up to 10%; n = 3–5 in triplicate
Chain of hA2AAR (P29274 whole entry): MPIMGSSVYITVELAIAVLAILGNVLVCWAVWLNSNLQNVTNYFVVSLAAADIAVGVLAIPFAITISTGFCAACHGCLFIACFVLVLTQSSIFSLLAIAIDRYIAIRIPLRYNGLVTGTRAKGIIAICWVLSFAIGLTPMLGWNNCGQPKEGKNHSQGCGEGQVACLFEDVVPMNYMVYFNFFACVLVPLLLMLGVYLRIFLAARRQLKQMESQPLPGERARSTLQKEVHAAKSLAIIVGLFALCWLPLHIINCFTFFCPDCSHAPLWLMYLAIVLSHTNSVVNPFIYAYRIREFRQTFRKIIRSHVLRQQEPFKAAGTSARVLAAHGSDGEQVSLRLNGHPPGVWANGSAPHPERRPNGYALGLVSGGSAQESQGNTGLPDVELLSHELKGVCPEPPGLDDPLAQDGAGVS
Description: as §2

HCT-116 cells = system: HCT-116 cells; design: method as in PMID 23454010; details: A3AR dependent; cited from earlier work
HT-29 cells [1] = system: HT-29 cells; design: method as in PMID 23454010; details: 1 µM, A3AR-dependent; cited from earlier work
[2] = Ex vivo blood stability in BALB/c mice; details: 70 min after retroorbital injection
Description: Radiosynthesis was performed as described elsewhere and the product was processed as follows: ethanol was totally evaporated and the dry product was again physiologically formulated in 1.5–2 mL Tween-20/EtOH/0.9% saline 1/9/90 to obtain activity concentrations of approximately 1 GBq/mL. Healthy BALB/c mice were injected with 18 ± 2 MBq (molar activity = 70–200 GBq/μmol) retroorbitally and sacrificed after 5, 10, 20, 40, and 70 min (n = 3 for each time point). Blood samples were collected and immediately precipitated using acetonitrile/methanol (10 : 1) and centrifuged (12,000 rpm, 5 min, 4°C). The obtained supernatants were subjected to radio-HPLC as previously described.

HT-29 xenografts = assay: µPET imaging of HT-29 / CHO-K1 xenograft-bearing CB17-SCID mice; type: in vivo; details: µPET 60 min, baseline
Description: After 10 to 14 days upon arrival, CB17-SCID mice were injected subcutaneously with 2 × 10^6 HT-29 cells into one flank and 2 × 10^6 CHO-K1 cells in the opposite flank (n = 9). Body weight and tumor development were monitored every second day by caliper measurement. The respective tumor volume was calculated according to the following equation: tumor volume (mm^3) = d^2 × D/2 (where d is the shortest diameter and D the longest diameter). Animals were subjected to μPET imaging 10 days after inoculation, when tumors reached a volume of at least 300 mm^3. Tumor volume never exceeded 1 cm^3.
Xenograft-bearing CB17-SCID mice were anesthetized using isoflurane (2.5%) mixed with oxygen (1.5 L/min) to avoid movement during the imaging. Blocking agents (2 mg/kg BW FE@SUPPY or MRS1523) or the respective vehicle control (Tween-20/EtOH/0.9% physiological saline 1/9/90) was administered retroorbitally 2 min prior to the radiotracer administration (n = 3 per group). Subsequently, the animals received another retroorbital injection of 17.42 ± 4.5 MBq [^18F]FE@SUPPY into the venous plexus of the opposite eye. With a minor delay after the application of the radiotracer (2-3 min), mice were placed into the field of view of the scanner (μPET/CT Inveon, Siemens Medical Solution, Knoxville, USA), and dynamic imaging was performed for 60 min to follow tracer distribution. Vital parameters (respiration, body temperature) were continuously monitored using a dedicated monitoring unit (bioVet; m2m imaging, Cleveland, OH, USA) to ensure the depth of anesthesia and wellbeing of the animals.

[3] = system: colorectal carcinoma tissue slices; assay: Autoradiography of human colorectal carcinoma versus healthy colon tissue slices; type: binding; details: in 5 of 7 regions, two CRC patients, P < 0.05
Description: Colorectal carcinoma tissue and adjacent healthy colon tissue were obtained directly after tumorectomy from two patients after full informed consent and quick-frozen in 2-methylbutane (−40°C). Tissue was sliced into 16 μm slices using a microcryotome (Thermo Scientific Microm HM 560) and stored at −80°C until usage. Depending on the sample size, 3 to 4 different regions were defined and analyzed by means of autoradiography and immunohistochemistry.
Tissue slices were thawed and reconstituted in assay buffer (50 mM Tris-HCl pH 7.4, 100 mM NaCl, 1 mM EDTA, 1% BSA, 1 unit adenosine deaminase/100 mL) for 30 min at RT. Radiosynthesis of [^18F]FE@SUPPY was performed as previously described and the product was physiologically formulated (EtOH/0.9% saline 10/90). Tissue slices were incubated with 50 kBq [^18F]FE@SUPPY (40–200 GBq/μmol) in 100 μL assay buffer for 1 h at RT. Slices were thoroughly washed with ice-cold wash buffer (50 mM Tris-HCl pH 7.4), dried, and exposed to a phosphor screen overnight. The readout of the phosphor storage screen was performed on a Cyclone Phosphor Imager (Perkin Elmer), and data analysis was performed using OptiQuant® Software as previously described. […] Differences among groups (colorectal cancer versus healthy colon) were analyzed using a two-tailed, unpaired Student's t-test with Welch's correction.

[4] = In vitro stability against mouse S9 fraction; type: in vitro ADME; details: mouse liver homogenates (S9 fraction), 120 min
Description: (§1) Stability of [^18F]FE@SUPPY was tested against mouse liver microsomes, mouse S9 fraction, and mouse plasma (BD Sciences). Amount of intact tracer (%) was determined after 5, 10, 20, 40, 60, and 120 min using an Agilent series 1100/1200 HPLC system connected to a radioactivity detector (Raytest, Ramona Star) (n = 2 in triplicate). The assay was conducted as previously described for respective rat and human enzymes.

[5] = In vitro stability against mouse liver microsomes; type: in vitro ADME; details: purified mouse liver microsomes, 120 min
Description: as §1

[6] = Ex vivo biodistribution in BALB/c mice; details: 70 min after tracer application, n = 3
Description: Ex vivo biodistribution of [^18F]FE@SUPPY was assessed 70 min after tracer application in BALB/c mice. Radioactivity was determined using a gamma counter (2480 Wizard^2, PerkinElmer), organs were wet-weighted, and percentage of injected dose per gram of organ was calculated (%ID/g).

[7] = In vitro stability in mouse plasma; type: in vitro ADME; details: 120 min incubation at 37°C
Description: as §1

[8] = design: method as in PMID 25601336; details: rats, after 60 min; cited from earlier work
rat A3AR = system: rat A3AR; design: method as in PMID 25242859; details: cited from earlier work
HT-29 cells [9] = system: HT-29 cells; design: method as in PMID 17488804; details: hypoxic conditions, through A3AR stimulation; cited from earlier work

hA1/hA3AR selectivity ratio (hA1AR; ratio of Ki values): 324
Ki (hA1AR): 5.46 ± 0.4 µM
Ki (hA3AR; n = 3–5 in triplicate): 2.58 ± 1.2 µM
Ki (hA2AAR): 37.1 ± 16 µM
Compound: CCSC(=O)c1c(CC)nc(-c2ccccc2)c(C(=O)O)c1CC [DFE@SUPPY]

Ki (hA1AR): 4.03 ± 1 µM
Ki (hA3AR; n = 3): 0.00602 ± 0.0004 µM
Ki (hA2AAR): 1.72 ± 0.4 µM
Compound: CCSC(=O)c1c(CC)nc(-c2ccccc2)c(C(=O)OCCF)c1CC [FE@SUPPY]

intact tracer in blood (ex vivo) [2]: 2.2 ± 0.4%
SUV CHO-K1 xenograft tumor (hA3AR negative control) (HT-29 xenografts; CB17-SCID mice): 0.25 ± 0.33
SUV HT-29 xenograft tumor (HT-29 xenografts; CB17-SCID mice): 0.23 ± 0.06
SUV bile fluid (HT-29 xenografts; CB17-SCID mice): 21.85 ± 10.63
SUV blood (HT-29 xenografts; CB17-SCID mice): 1.21 ± 0.11
SUV urine (HT-29 xenografts; CB17-SCID mice): 8.86 ± 3.44
SUV liver (HT-29 xenografts; xenograft-bearing CB17-SCID mice): 6.68 ± 0.80
higher binding in colorectal carcinoma versus healthy colon tissue of the same patient [3]: ≥ 2.3 fold
intact tracer [4]: 66.9 ± 6.7%
intact tracer [5]: 31.4 ± 7.8%
accumulation in bile fluid [6]: 162.78 ± 37.51 % ID/g
accumulation in brain [6]: 0.23 ± 0.03 % ID/g
accumulation in heart [6]: 1.13 ± 0.04 % ID/g
accumulation in kidneys [6]: 2.67 ± 0.24 % ID/g
accumulation in liver [6]: 14.57 ± 0.20 % ID/g
accumulation in lung [6]: 1.50 ± 0.23 % ID/g
accumulation in urine [6]: 43.33 ± 9.23 % ID/g
circulating radioactivity in blood [6]: 1.6 ± 0.1 % ID/g
intact tracer [7]: 92.6 ± 0.7%
Compound: CCSC(=O)c1c(CC)nc(-c2ccccc2)c(C(=O)OCC[18F])c1CC [[^18F]FE@SUPPY, 5-(2-[18F]fluoroethyl) 2,4-diethyl-3-(ethylsulfanylcarbonyl)-6-phenylpyridine-5-carboxylate]
intact tracer in plasma [8]: 25.8 ± 5.3%

The remaining lines, values behind:

Compound: CNC(=O)[C@H]1O[C@@H](n2cnc3c(NCc4cccc(I)c4)ncnc32)[C@H](O)[C@@H]1O [IB-MECA]
effect on cells (HCT-116 cells): causes cell apoptosis
effect on cell growth (HT-29 cells [1]): growth promoting effect

Compound: Nc1ncnc2c1ncn2[C@@H]1O[C@H](CO)[C@@H](O)[C@H]1O [adenosine]
affinity for the A3AR (rat A3AR): ~ 1 µM

Compound: Cn1c(=O)c2c(ncn2C)n(C)c1=O [caffeine]
effect on HIF-1 protein and VEGF expression (HT-29 cells [9]): leads to hypoxia-inducible factor-1 (HIF-1) protein accumulation and increased vascular endothelial growth factor (VEGF) expression
